Where “and” joins values, the source holds several entries; their conditions need not be identical. Equal entries are not always repeated.
Test system: 429239-143-T-J1-PDC complex spheroid viability
Test: Anticancer human tumor 429239-143-T-J1-PDC patient-derived small cell lung carcinoma cell line growth inhibition [POLQ]
Conditions: for viability, T/C: stronger effect = lower value
Protocol: Multicellular complex tumor spheroid response to Polymerase (POL) inhibitors (novobiocin, ART-558, RP6685) in combination with a variety of drugs and investigational agents in selected tumor cell lines
The POL inhibitors (novobiocin, ART-558, and RP6685) were evaluated both individually and in combination with standard of care and investigational anticancer small molecules within a complex spheroid model of solid tumors. . Complex spheroids include a stromal component modeled by human endothelial cells (HUVEC) and fibroblasts modeled by human mesenchymal stem cells (MSCs). The concentration ranges selected for each drug and investigational agent were based upon clinically achievable concentrations if the clinical Cmax of the agent was known.
Compounds. The drugs and investigational agents: novobiocin (NSC847541), ART-558 (NSC835418), RP-6685 (NSC848927), peposertib (NSC802822), ceralasertib (NSC780249), elimusertib (NSC800525), camonsertib (NSC841442), AZD-1390 (NSC803789), olaparib (NSC753686), talazoparib (NSC767125), rucaparib (NSC756644), sotorasib (NSC818433), MRTX-1133 (NSC836407), SN-38 (NSC673596), topotecan (NSC609699), epotoside (NSC141540), doxorubicin (NSC123127), gemcitabine (NSC613327), 5-fluorouracil (NSC19893), paclitaxel (NSC125973), vemurafenib (NSC761431), MSA-2 (NSC828583), SN-011 (NSC837082), adavosertib (NSC754352), prexasertib (NSC758257), carboplatin (NSC241240) and oxaliplatin (NSC266046), were obtained from the National Cancer Institute (NCI) Developmental Therapeutics Program Chemical Repository (21). The FDA-approved anticancer drug set is available from the Developmental Therapeutics Program at https://dtp.cancer.gov/organization/dscb/obtaining/. […] The stock solutions were prepared in dimethyl sulfoxide (DMSO, Sigma-Aldrich, St. Louis, MO, cat. D2650), except for the platinum compounds which were prepared in saline (Quality Biological, Gaithersburg, MD, cat. 114-055-101), at 800-fold the tested concentration and stored at -70 degrees C prior to their use. All drugs and investigational agents were tested over a range starting from a high concentration at or near the clinical Cmax and decreasing in half-log increments. If the clinical Cmax for an agent had not been determined, the highest concentration tested was 10 microM, except for SN-38, which was tested at a high concentration of 1 microM.
Cell Culture. All cells were maintained in an incubator at 37 degrees C and 5% CO2 with 95% humidity. The PDC lines were cultured according to standard operating procedures established by the NCI PDMR (https://pdmr.cancer.gov). Table 3 of the manuscript, lists the cell lines along with the number of the three cell types plated to form the mct-spheroids and media for tumor cell growth. After thawing, all PDC lines, except 997537-175-T-J1-PDC and 415267-285-R-J2-PDC, were cultured in Matrigel-coated flasks prepared with a working solution of 1X Ham's F-12 nutrient mix, without supplementation (Thermo Fisher Scientific, cat. 11765054), 100 U/mL penicillin-streptomycin (Thermo Fisher Scientific, cat. 15140122), and 2.5% Matrigel (Corning Inc., Corning, NY, cat. 354248) for the first three passages. The two PDC lines 997537-175-T-J1-PDC and 415267-285-R-J2-PDC were cultured on uncoated flasks. The 857933-349-R-J2-PDC line was cultured in 6C/Colon 1B media containing advanced DMEM/F-12 (Thermo Fisher Scientific, cat. 12634028), 10 mM HEPES (Thermo Fisher Scientific, cat. 15630080), 1X GlutaMAX supplement (Thermo Fisher Scientific, cat. 35050061), 0.1 mg/mL primocin (InvivoGen, San Diego, CA, cat. ant-pm-2), 10% defined fetal bovine serum, heat inactivated (HyClone Laboratories Inc., Logan, UT, cat. SH30070.03HI), 50% L-WRN conditioned media (ATCC, cat. CRL-3276), 1.25 mM N-Acetyl-L-cysteine (Sigma-Aldrich, cat. A9165), 10 mM nicotinamide (Sigma-Aldrich, cat. N0636), 1X B-27 supplement (Thermo Fisher Scientific, cat. 17504044), 1X N-2 supplement (Thermo Fisher Scientific, cat. […]
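Further: luminescence signal used as surrogate measure of viable cells; spheroids exposed to compounds for seven days before readout.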
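Wherever viability, T/C is given: 100% = DMSO vehicle control viability as luminescence relative to vehicle.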

Q: `CC[C@@]1(O)C(=O)OCc2c1cc1n(c2=O)Cc2cc3c(CN(C)C)c(O)ccc3nc2-1` + Nc1ccc(C#CCN(C(=O)Cc2ncc(C(F)(F)F)cc2C(F)(F)F)c2ccc(F)cc2)nn1 was tested. Which IC50 (curve of first compound, second compound 0.0316 µM) did it give?
A: 16.9 nM

Q: And the IC50 (curve of first compound, second compound 0.1 µM)?
A: 17.3 nM

Q: What about the IC50 (curve of first compound, second compound 0.316 µM) of the same compound?
A: 17.9 nM

Q: And the IC50 (curve of first compound, second compound 1 µM)?
A: 16.7 nM

Q: What about the IC50 (curve of first compound, second compound 3.16 µM) of the same compound?
A: 17.7 nM

Q: And the IC50 (curve of first compound, second compound 10 µM)?
A: 17.7 nM

Q: And the viability, T/C (second compound 0.0316 µM, first compound 0.000316 µM)?
A: 95.7%

Q: And the viability, T/C (second compound 0.0316 µM, first compound 0.001 µM)?
A: 103%

Q: What about the viability, T/C (second compound 0.0316 µM, first compound 0.00316 µM) of the same compound?
A: 106%

Q: What about the viability, T/C (second compound 0.0316 µM, first compound 0.01 µM) of the same compound?
A: 84.2%

Q: And the viability, T/C (second compound 0.0316 µM, first compound 0.0316 µM)?
A: 9.5%

Q: What about the viability, T/C (second compound 0.0316 µM, first compound 0.1 µM) of the same compound?
A: 5.15%

Q: And the viability, T/C (second compound 0.1 µM, first compound 0.000316 µM)?
A: 103%

Q: What about the viability, T/C (second compound 0.1 µM, first compound 0.001 µM) of the same compound?
A: 95.5%

Q: And the viability, T/C (second compound 0.1 µM, first compound 0.00316 µM)?
A: 103%

Q: What about the viability, T/C (second compound 0.1 µM, first compound 0.01 µM) of the same compound?
A: 86.9%

Q: What about the viability, T/C (second compound 0.1 µM, first compound 0.0316 µM) of the same compound?
A: 9.05%

Q: And the viability, T/C (second compound 0.1 µM, first compound 0.1 µM)?
A: 5.15%

Q: And the viability, T/C (second compound 0.316 µM, first compound 0.000316 µM)?
A: 101%

Q: What about the viability, T/C (second compound 0.316 µM, first compound 0.001 µM) of the same compound?
A: 106%

Q: And the viability, T/C (second compound 0.316 µM, first compound 0.00316 µM)?
A: 96.5%

Q: What about the viability, T/C (second compound 0.316 µM, first compound 0.01 µM) of the same compound?
A: 92.5%

Q: And the viability, T/C (second compound 0.316 µM, first compound 0.0316 µM)?
A: 7.36%

Q: What about the viability, T/C (second compound 0.316 µM, first compound 0.1 µM) of the same compound?
A: 9.85%

Q: And the viability, T/C (second compound 1 µM, first compound 0.000316 µM)?
A: 107%

Q: What about the viability, T/C (second compound 1 µM, first compound 0.001 µM) of the same compound?
A: 100%

Q: And the viability, T/C (second compound 1 µM, first compound 0.00316 µM)?
A: 99.6%

Q: What about the viability, T/C (second compound 1 µM, first compound 0.01 µM) of the same compound?
A: 82.9%

Q: And the viability, T/C (second compound 1 µM, first compound 0.0316 µM)?
A: 8.94%

Q: And the viability, T/C (second compound 1 µM, first compound 0.1 µM)?
A: 5.82%

Q: And the viability, T/C (second compound 3.16 µM, first compound 0.000316 µM)?
A: 101%

Q: What about the viability, T/C (second compound 3.16 µM, first compound 0.001 µM) of the same compound?
A: 98%

Q: What about the viability, T/C (second compound 3.16 µM, first compound 0.00316 µM) of the same compound?
A: 99.8%

Q: What about the viability, T/C (second compound 3.16 µM, first compound 0.01 µM) of the same compound?
A: 89.3%

Q: And the viability, T/C (second compound 3.16 µM, first compound 0.0316 µM)?
A: 9.67%

Q: What about the viability, T/C (second compound 3.16 µM, first compound 0.1 µM) of the same compound?
A: 5.18%

Q: And the viability, T/C (second compound 10 µM, first compound 0.000316 µM)?
A: 104%

Q: What about the viability, T/C (second compound 10 µM, first compound 0.001 µM) of the same compound?
A: 103%

Q: And the viability, T/C (second compound 10 µM, first compound 0.00316 µM)?
A: 93.5%

Q: What about the viability, T/C (second compound 10 µM, first compound 0.01 µM) of the same compound?
A: 87.8%

Q: What about the viability, T/C (second compound 10 µM, first compound 0.0316 µM) of the same compound?
A: 11.9%

Q: What about the viability, T/C (second compound 10 µM, first compound 0.1 µM) of the same compound?
A: 7.53%

Q: Which results are given for `COc1cccc2c1C(=O)c1c(O)c3c(c(O)c1C2=O)CC(O)(C(=O)CO)CC3OC1CC(N)C(O)C(C)O1` (centres undefined)?
A: viability, T/C (compound 0.0316 µM): 64.3% and 87.3% and 71.1%; viability, T/C (compound 0.1 µM): 12.8% and 42.3% and 14.2%; viability, T/C (compound 0.316 µM): 11.6% and 7.66% and 13.1%; viability, T/C (compound 1 µM): 0.3% and 0.77% and 0.76%; viability, T/C (compound 3.16 µM): 0.21% and 0.16% and 0.18%; viability, T/C (compound 10 µM): 0.24% and 0.16% and 0.14%; IC50 (curve of compound): 44.1 nM and 82.1 nM and 49.7 nM

From PubChem BioAssay AID1963845 (Molecular Pharmacology Branch, DTP, NCI, 2024)
